According to ChEMBL document CHEMBL1122421 (J Med Chem, 1983):

Biological target: Opioid receptor (Rattus norvegicus, UniProt P33533+P34975+P33535)
Test: Binding affinity against opiate receptor from rat neural membranes, using [3H]dihydromorphine as radioligand

| SMILES | IC50 |
| --- | --- |
| CN1CCC23c4c5ccc(O)c4O[C@H]2C(O)C=C[C@@]3(NC(=O)CBr)C1C5 (some centres not stated) | 15 nM |
| CN1CCC23c4c5ccc(O)c4O[C@H]2C(=O)C=C[C@@]3(NC(=O)CBr)C1C5 (some centres not stated) | 10 nM |
